The record followed here is patent US7141252B2, “Composition for the treatment of burns, sunburns, abrasions, ulcers and cutaneous irritation” (priority 2003, dated 2006).

The assay deals with burns. The assay is described as follows: Treating burns with different combinations of the ingredients. Format: in vivo. To be noted: topical treatment of burns, comparison of ingredient combinations.

As for `OB(O)O` [boric acid], the healing of burns entry is on record as “appeared to advance healing without infection but only in a very limited fashion”.
